Assay results from patent US20250320206A1, “STAT6 DEGRADERS” (Gilead Sciences, Inc., priority 2024, published 2025).

What was measured:
STAT6 = target: T1, STAT6 (Homo sapiens, UniProt P42226); assay: Stat6 Degrader Assay (HiBiT based, HeLa LgBiT clone 4.14); type: cell-based; details: HeLa LgBiT clone 4.14 HiBiT-STAT6, 4-24 h incubation; values given for compounds with >80% Emax; geometric mean; read-out: STAT6 degradation DC50
T1 construct: These cells express endogenous STAT6; host or cells: HeLa LgBiT clone 4.14
T1 sequence (P42226 1-847): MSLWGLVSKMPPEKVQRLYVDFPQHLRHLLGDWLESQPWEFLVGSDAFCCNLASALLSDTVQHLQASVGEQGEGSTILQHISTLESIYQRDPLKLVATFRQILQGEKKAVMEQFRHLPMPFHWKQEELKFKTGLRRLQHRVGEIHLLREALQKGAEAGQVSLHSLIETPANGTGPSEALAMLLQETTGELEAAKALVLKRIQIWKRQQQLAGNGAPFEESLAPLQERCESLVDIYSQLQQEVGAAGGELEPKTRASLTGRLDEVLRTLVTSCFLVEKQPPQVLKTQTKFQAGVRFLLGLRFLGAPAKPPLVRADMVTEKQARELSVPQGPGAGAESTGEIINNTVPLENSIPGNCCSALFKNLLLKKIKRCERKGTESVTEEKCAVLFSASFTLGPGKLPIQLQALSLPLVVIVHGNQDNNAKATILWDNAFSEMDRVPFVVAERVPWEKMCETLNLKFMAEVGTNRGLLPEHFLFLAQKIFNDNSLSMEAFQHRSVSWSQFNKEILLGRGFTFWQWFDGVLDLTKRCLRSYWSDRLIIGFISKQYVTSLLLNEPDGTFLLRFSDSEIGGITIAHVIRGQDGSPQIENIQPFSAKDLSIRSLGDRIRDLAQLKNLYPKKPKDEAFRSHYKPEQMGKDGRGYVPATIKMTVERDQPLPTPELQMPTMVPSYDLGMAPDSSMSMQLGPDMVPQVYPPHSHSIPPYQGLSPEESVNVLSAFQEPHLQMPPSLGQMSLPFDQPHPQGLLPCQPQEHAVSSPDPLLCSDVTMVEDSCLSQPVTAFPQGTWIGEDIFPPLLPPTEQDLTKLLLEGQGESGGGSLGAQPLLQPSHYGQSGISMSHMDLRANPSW
How it was run: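 HeLa LgBiT clone 4.14 cells with CRISPR HiBiT-tagged endogenous STAT6, 5000 cells/well, compound dosed then incubated 4-24 h at 37° C, 5% CO2. Nano-Glo substrate added, 0.5 h, luminescence read as non-degraded STAT6. Terfenadine 50 μM (cell kill) defines 100% degradation.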

[1] = tested on: Eotaxin-3 release in human whole blood stimulated with IL-4; assay: Human Whole Blood Eotaxin-3 Assay (IL-4 stimulated eotaxin-3 release); type: cell-based; details: IL-4 stimulation, 48 h, values given for compounds with >80% Emax, geometric mean
How it was run: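 Lithium-heparin human whole blood preincubated 2 h at 37° C with 4-fold serially diluted compounds (0.5% DMSO), then stimulated with recombinant human IL-4 ([…]) for 48 h. Eotaxin-3 (CCL26) in supernatant quantified by MSD immunoassay.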

| Structure (SMILES) | DC50 (STAT6) [nM] | EC50 [1] [nM] |
| --- | --- | --- |
| CNc1ccn(-c2ccnc3c2cc(CN2CCC(c4c(C)cc(C(=O)N5CCC(CN6CCN(Cc7ccc8c(c7)n(C)c(=O)n8[C@H]7CCC(=O)NC7=O)CC6)CC5)cc4F)CC2)n3C)c(=O)c1 (single isomer, unassigned) [Example 3u160] | 10.9 | 27.5 |
| Cc1cc(C(=O)N2CCC(CN3CCN(Cc4ccc5c(c4)n(C)c(=O)n5C4CCC(=O)NC4=O)C[C@@H]3C)CC2)cc(F)c1C1=CCN([C@@H](C)c2cc3c(-n4cc(F)c5c(c4=O)CCN5)ccnc3n2C)CC1 (stereo partly drawn) [Example 3u109, 3-(5-(((S)-4-((1-(3-fluoro-4-(1-((S)-1-(4-(7-fluoro-4-oxo-1,2,3,4-tetrahydro-5H-pyrrolo[3,2-c]pyridin-5-yl)-1-methyl-1H-pyrrolo[2,3-b]pyridin-2-yl)ethyl)-1,2,3,6-tetrahydropyridin-4-yl)-5-methylbenzoyl)piperidin-4-yl)methyl)-3-methylpiperazin-1-yl)methyl)-3-methyl-2-oxo-2,3-dihydro-1H-benzo[d]imidazol-1-yl)piperidine-2,6-dione] | 1.4 | 2.8 |
| CNc1cc(=O)n(-c2ccnc3c2cc([C@H](C)N2CC=C(c4c(C)cc(C(=O)N5CCC(CN6CCN(Cc7cc8c(cc7F)N([C@H]7CCC(=O)NC7=O)C(=O)C87CC7)CC6)CC5)cc4F)CC2)n3C)cc1F (single isomer, unassigned) [Example 3u154] | 6.4 | 10.1 |
| CNc1ccn(-c2ccnc3c2cc([C@H](C)N2CCC(c4c(C)cc(C(=O)N5CCC(CN6CCN(Cc7ccc8c(c7)n(C7CC7)c(=O)n8[C@@H]7CCC(=O)NC7=O)C[C@@H]6C)CC5)cc4F)CC2)n3C)c(=O)c1 (single isomer, unassigned) [Example 3u199] | 1.1 | 2.7 |
| CNc1cc(=O)n(-c2ccnc3c2cc([C@H](C)N2CC=C(c4c(C)cc(C(=O)N5CCC(CN6CCN(Cc7ccc8c(c7)n(C7CC7)c(=O)n8[C@@H]7CCC(=O)NC7=O)C[C@@H]6C)CC5)cc4F)CC2)n3C)cc1F (single isomer, unassigned) [Example 3u120] | 1 | 3.7 |
| CNc1cc(=O)n(-c2ccnc3c2cc(CN2CC=C(c4c(F)cc(C(=O)N5CCC(CN6CCN(Cc7ccc8c(c7)C(C)(C)C(=O)N8[C@H]7CCC(=O)NC7=O)C[C@@H]6C)CC5)cc4F)CC2)n3C)cc1F (single isomer, unassigned) [Example 3u78] | 9.8 | 45.9 |
| C[C@H]1CN(Cc2ccc3c(c2)C2(CC2)C(=O)N3[C@@H]2CCC(=O)NC2=O)CCN1CC1CCN(C(=O)c2cc(F)c(C3=CCN([C@@H](C)c4cc5c(-n6cc(F)c7c(c6=O)CCN7)ccnc5n4C)CC3)c(F)c2)CC1 [Example 3u127, (R)-3-(5′-(((S)-4-((1-(3,5-difluoro-4-(1-((S)-1-(4-(7-fluoro-4-oxo-1,2,3,4-tetrahydro-5H-pyrrolo[3,2-c]pyridin-5-yl)-1-methyl-1H-pyrrolo[2,3-b]pyridin-2-yl)ethyl)-1,2,3,6-tetrahydropyridin-4-yl)benzoyl)piperidin-4-yl)methyl)-3-methylpiperazin-1-yl)methyl)-2′-oxospiro[cyclopropane-1,3′-indolin]-1′-yl)piperidine-2,6-dione] | 5.4 | 14.8 |
| CNc1cc(=O)n(-c2ccnc3c2cc([C@H](C)N2CC=C(c4c(C)cc(C(=O)N5CCC(CN6CCN(c7ccc8c(c7)C7(CC7)C(=O)N8[C@H]7CCC(=O)NC7=O)CC6)CC5)cc4F)CC2)n3C)cc1F (single isomer, unassigned) [Example 3u291] | 5.7 | 21.7 |
| CNc1cc(=O)n(-c2ccnc3c2cc([C@H](C)N2CC=C(c4c(C)cc(C(=O)N5CCC(CN6CCN(Cc7ccc8c(c7)n(C)c(=O)n8[C@H]7CCC(=O)NC7=O)C[C@@H]6C)CC5)cc4F)CC2)n3C)cc1F (single isomer, unassigned) [Example 3u91] | 0.6 | 1.4 |
| CNc1ccn(-c2ccnc3c2cc([C@H](C)N2CCC(c4c(C)cc(C(=O)N5CCC(CN6CCN(Cc7ccc8c(c7)n(C7CC7)c(=O)n8C7CCC(=O)NC7=O)C[C@@H]6C)CC5)cc4F)CC2)n3C)c(=O)c1 (stereo partly drawn) [Example 3u197, 3-(3-cyclopropyl-5-(((S)-4-((1-(3-fluoro-5-methyl-4-(1-((S)-1-(1-methyl-4-(4-(methyl-amino)-2-oxopyridin-1 (2H)-yl)-1H-pyrrolo[2,3-b]pyridin-2-yl)ethyl)piperidin-4-yl)benzoyl)piperidin-4-yl)methyl)-3-methylpiperazin-1-yl)methyl)-2-oxo-2,3-dihydro-1H-benzo[d]imidazol-1-yl)piperidine-2,6-dione] | 1.2 | 2.7 |
| CNc1cc(=O)n(-c2ccnc3c2cc(CN2CCC(c4c(F)cc(C(=O)N5CCC(CN6CCN(Cc7ccc8c(c7)C(C)(C)C(=O)N8[C@@H]7CCC(=O)NC7=O)CC6)CC5)cc4F)CC2)n3C)cc1F (single isomer, unassigned) [Example 3u59] | 11.4 | 25.8 |
| Cc1cc(C(=O)N2CCC(CN3CCN(Cc4ccc5c(c4)C(C)(C)C(=O)N5C4CCC(=O)NC4=O)C[C@@H]3C)CC2)cc(F)c1C1=CCN([C@@H](C)c2cc3c(-n4cc(F)c(N)cc4=O)ccnc3n2C)CC1 (stereo partly drawn) [Example 3u169, 3-(5-(((S)-4-((1-(4-(1-((S)-1-(4-(4-amino-5-fluoro-2-oxopyridin-1 (2H)-yl)-1-methyl-1H-pyrrolo[2,3-b]pyridin-2-yl)ethyl)-1,2,3,6-tetrahydropyridin-4-yl)-3-fluoro-5-methylbenzoyl)piperidin-4-yl)methyl)-3-methylpiperazin-1-yl)methyl)-3,3-dimethyl-2-oxoindolin-1-yl)piperidine-2,6-dione] | 4.1 | 14.6 |
| CNc1cc(=O)n(-c2ccnc3c2cc(CN2CCC(c4c(F)cc(C(=O)N5CCC(CN6CCN(Cc7cc8c(cc7F)N([C@H]7CCC(=O)NC7=O)C(=O)C87CC7)CC6)CC5)cc4F)CC2)n3C)cc1F (single isomer, unassigned) [Example 3u94] | 10.2 | 23.8 |
| CNc1cc(=O)n(-c2ccnc3c2cc([C@H](C)N2CC=C(c4c(C)cc(C(=O)N5CCC(CN6CCN(Cc7ccc8c(c7)C7(CC7)C(=O)N8[C@@H]7CCC(=O)NC7=O)CC6)CC5)cc4F)CC2)n3C)cc1F (single isomer, unassigned) [Example 3u68] | 1 | 7.8 |
| CNc1ccn(-c2ccnc3c2cc([C@H](C)N2CC=C(c4c(C)cc(C(=O)N5CCC(CN6CCN(Cc7ccc8c(c7)C7(CC7)C(=O)N8[C@H]7CCC(=O)NC7=O)C[C@@H]6C)CC5)cc4F)CC2)n3C)c(=O)c1 (single isomer, unassigned) [Example 3u191] | 0.4 | 0.5 |
| CNc1cc(=O)n(-c2ccnc3c2cc([C@H](C)N2CC=C(c4c(C)cc(C(=O)N5CCC(CN6CCN(c7ccc8c(c7)C7(CC7)C(=O)N8[C@@H]7CCC(=O)NC7=O)CC6)CC5)cc4F)CC2)n3C)cc1F (single isomer, unassigned) [Example 3u292] | 5.1 | 6.9 |
| CNc1ccn(-c2ccnc3c2cc([C@H](C)N2CC=C(c4c(F)cc(C(=O)N5CCC(CN6CCN(Cc7ccc8c(c7)n(C7CC7)c(=O)n8C7CCC(=O)NC7=O)C[C@@H]6C)CC5)cc4F)CC2)n3C)c(=O)c1 (stereo partly drawn) [Example 3u210, 3-(3-cyclopropyl-5-(((S)-4-((1-(3,5-difluoro-4-(1-((S)-1-(1-methyl-4-(4-(methylamino)-2-oxopyridin-1 (2H)-yl)-1H-pyrrolo[2,3-b]pyridin-2-yl)ethyl)-1,2,3,6-tetrahydropyridin-4-yl)benzoyl)-piperidin-4-yl)methyl)-3-methylpiperazin-1-yl)methyl)-2-oxo-2,3-dihydro-1H-benzo[d]imidazol-1-yl)piperidine-2,6-dione] | 0.5 | 1.1 |
| CNc1cc(=O)n(-c2ccnc3c2cc([C@H](C)N2CC=C(c4c(C)cc(C(=O)N(C)c5ccc(N6CCN(Cc7ccc8c(c7)n(C)c(=O)n8C7CCC(=O)NC7=O)CC6)nc5)cc4F)CC2)n3C)cc1F (stereo partly drawn) [Example 3u237, N-(6-(4-((1-(2,6-dioxopiperidin-3-yl)-3-methyl-2-oxo-2,3-dihydro-1H-benzo[d]-imidazol-5-yl)methyl)piperazin-1-yl)pyridin-3-yl)-3-fluoro-4-(1-((S)-1-(4-(5-fluoro-4-(methylamino)-2-oxopyridin-1 (2H)-yl)-1-methyl-1H-pyrrolo[2,3-b]pyridin-2-yl)ethyl)-1,2,3,6-tetrahydropyridin-4-yl)-N,5-dimethylbenzamide] | 0.1 | 1.7 |
